Where no end group is shown, it is not given here.
How the values were obtained:
[1] = test system: normal tissues; test: Localization of fluorescein-labeled peptide in normal tissues after intravenous injection; format: in vivo, mice
Procedure: Several normal tissues also were studied for localization of the CGNKRTRGC (SEQ ID NO: 1) peptide.
Detection of fluorescent peptides and biotin-conjugated tomato lectin was performed as follows. Fluorescein-conjugated peptide CGNKRTRGC (SEQ ID NO: 1) was prepared as described above. The peptide (100 µg in 200 µl of PBS) was injected into the tail vein of mice bearing MDA-MB-435 breast carcinoma tumors. After 10 minutes, biotin-conjugated lycopersicon esculentum (tomato) lectin (100 µg in 200 µl of PBS; Vector; Burlingame, California) was also injected into the tail vein. After 5 minutes, the mouse was perfused through the heart with 4% paraformaldehyde. Tissues were removed and frozen in O.C.T. embedding medium (Tissue-Tek; Torrence, California). Blood vessels were visualized by detecting the tomato lectin with streptavidin-conjugated Alexa 594 (Molecular Probes; Eugene, Oregon). Green staining indicated the presence of peptide SEQ ID NO: 1, while red staining indicated the presence of tomato lectin.

[2] = test system: MDA-MB-435 human breast carcinoma cell xenografts; test: Tumor treatment study; format: in vivo, nude mice; details: 67 nmol intravenously twice a week; after about two weeks of treatment; Figure 8
Procedure: A tumor treatment study was performed using MDA-MB-435 human breast carcinoma cell xenografts prepared by subcutaneously injecting 1 x 10^6 cells in 200 µl PBS into nude mice. Mice (five per group) were treated intravenously twice a week with 67 nmol CGNKRTRGC peptide (SEQ ID NO: 1) or with PBS starting four weeks after tumor implantation. Tumor volumes were measured once a week for four weeks.

[3] = test system: primary MDA-MB-435 breast carcinoma tumor cell suspensions; test: Ex vivo binding of phage to primary 435 tumor cell suspensions; parameters: species or system Human; details: addition of synthetic peptide
Procedure: Several ex vivo selections were performed with 435 tumor cell suspensions prepared from MDA-MB-435 breast carcinoma xenografts grown in nude mice, as described below. Anti-mouse CD31 was used to deplete the tumor cell mixture of blood vessel endothelial cells prior to rescuing phage bound to the CD31-negative cell population. By the third ex vivo round, the phage pool bound a tumor cell suspension approximately 350-fold over control, nonrecombinant phage. The ex vivo preselected phage pool then was subjected to an in vivo selection round by injection into the tail vein of a nude mouse bearing an MDA-MB-435 tumor. Phage were then rescued from harvested xenograft tumor tissue.
Xenografts, tumor cell suspensions and ex vivo selections were performed essentially as follows. Nude Balb/c mice were subcutaneously injected with 1 x 10^6 MDA-MB-435 tumor cells to generate breast carcinoma xenografts. Human MDA-MB-435 breast carcinoma xenograft tumors were harvested 9 to 12 weeks after implantation, and tumor cell suspensions prepared using collagenase (0.5 mg/ml, Sigma).
The suspension was subjected to serial washes with 1% BSA in DME to remove unbound phage. […]

[4] = test system: Cultured MDA-MB-435 cells; test: Cytotoxicity in cell culture, trypan blue staining; format: cell-based
Procedure: Cultured MDA-MB-435 cells were incubated with a control peptide (CGEKRTRGC; SEQ ID NO: 3) or with CGNKRTRGC (SEQ ID NO: 1) at 37°C for 1, 2 or 4 hours. After staining with trypan blue, which is taken up by cells that are dead or dying, the total number of cells were counted, and the percentage of trypan blue stained cells determined. […] In particular, after four hours incubation, at least 7-fold greater trypan blue uptake was evident in cell cultures incubated with peptide SEQ ID NO: 1 as compared to cultures incubated with control peptide.

[5] = test system: MDA-MB-435 tumor lymphatic vasculature; test: Localization in 435 tumors after intravenous injection, with blood vessel and lymphatic markers
[6] = concentration of 10 µM; cited from earlier work
[7] = test system: cultured KRIB cells; test: Internalization of fluorescein-labeled peptide by cultured KRIB cells; format: cell-based, human
[8] = test system: cultured MDA-MB-435 tumor cells; test: Internalization and subcellular localization in cultured MDA-MB-435 cells; format: cell-based, Human; details: one to five hours at 37°C; Figure 2
Procedure: A fluorescein-conjugated CGNKRTRGC (SEQ ID NO: 1) peptide was utilized to further analyze cellular internalization and subcellular localization. […] Natl. Acad. Sci. 97:13003 (2000). The fluorescein-conjugated peptides were incubated with cultured MDA-MB-435 tumor cells for one to five hours at 37°C. […] Cultured 435 cells also internalized the CGNKRTRGC (SEQ ID NO: 1) phage, although the phage accumulated in the cytoplasm of the cells.

Substance: CGNKRTRGC [CGNKRTRGC (SEQ ID NO: 1)]
- fluorescence in normal tissues [1]: seen only in the kidney tubuli
- mean tumor volume compared to mice administered PBS alone [2]: at least several fold less
- inhibition of binding of phage displaying the same peptide sequence [3]: inhibited binding
- trypan blue uptake relative to cultures incubated with control peptide ([4]; four hours incubation, 37°C, control peptide SEQ ID NO: 3): at least 7 fold
- cytotoxic effect as compared to control peptide SEQ ID NO: 3 ([4]; later time points (1, 2 or 4 hours), Figure 7): significantly enhanced cytotoxic effect
- accumulation in single cells within the tumor ([5]; fluorescein-labeled peptide): accumulated in VEGFR-3 positive single cells within the tumor
- co-localization with the macrophage marker F4/80 ([5]; mouse, in vivo): lack of co-localization

Substance: D(KLAKLAK)2
- mitochondrial swelling [6]: marked mitochondrial swelling

Substance: fluorescein-conjugated CGNKRTRGC (SEQ ID NO: 1) peptide: Fluorescein-conjugated CGNKRTRGC (SEQ ID NO: 1) peptide (cysteine pairing not given here; also: fluorescein-conjugated)
- internalization by cultured KRIB cells [7]: internalized
- uptake and subcellular localization of fluorescein-conjugated peptide [8]: taken up by the 435 cells and translocated into the cell nucleus
- internalization and nuclear localization in vivo ([5]; Figure 5): internalized and transported into nuclei in vivo
- internalization and nuclear localization in vivo ([5]; Figure 5, listed as fluorescein-conjugated peptide (SEQ ID NO: 1)): accumulated in the nuclei lining the vessel-like structures
- co-localization with blood vessels labeled with biotin-conjugated tomato lectin ([5]; Figures 3A-C): notable lack of co-localization
- co-localization with lymphatic markers VEGFR-3 and LYVE-1 ([5]; intravenously injected, Figure 5): co-localized with VEGFR-3 and LYVE-1 staining in 435 tumor tissue
- blood vessel markers CD31 and Meca-32 on the vessels in which the substance localized ([5]; tail vein injection): negative for the CD31 and Meca-32 blood vessel markers
- localization within 435 tumor ([5]; tail vein injection): localized in vessel-like structures and in individual cells within the tumor

Source: EP1581790B1, “PEPTIDES THAT HOME TO TUMOR LYMPHATIC VASCULATURE AND METHODS OF USING SAME” (The Burnham Institute, priority 2001, dated 2009)
